{
  "source": "patent US11974551B2",
  "about": "“L-serine compositions, methods and uses for treating neurodegenerative diseases and disorders” (priority 2011, dated 2024)",
  "key": {"MRC-5 cells": {"tested_on": "MRC-5 cells", "assay": "Incorporation of 3H-BMAA radiolabel into cell proteins (TCA precipitation, liquid scintillation counting)", "type": "cell-based, human", "conditions": "3H-BMAA 31.25 nM, 16 hours", "method": "MRC-5 cells were incubated with ^3H-BMAA (31.25 nM) in HBSS containing 10% FCS. After 2, 4, and 16 hours, cells were washed three times in phosphate buffered saline and lysed by freeze-thawing in Triton X-100. The protein concentration in the lysate was determined using the bicinchoninic acid assay (BCA) (Smith, et al., Anal Biochem 150, 76-85 (1985)) (and radiolabel in the cell lysate quantified by liquid scintillation counting (LSC). Cell proteins were then isolated by trichloroacetic acid (TCA) (5%) precipitation washed three times in TCA (5%) and dissolved in formic acid.\nTo determine if incorporation of radiolabel into proteins was protein synthesis dependent MRC-5, SH-SY5Y and HUVEC cells were incubated with ^3H-BMAA (31.25 nM) with or without CHX 2 μg/ml for 16 hours. The amount of radiolabel present in cell proteins in the CHM-treated cultures was expressed relative to that of control cultures, which was set at 100%. Parallel cultures of MRC-5 cells were incubated with ^3H-leucine (41 nM) with or without CHX 2 μg/ml under identical culture conditions and processed as before.\nTo examine the ability of individual amino acids to reduce incorporation or radiolabel into proteins, MRC-5 cells were incubated with ^3H-BMAA (31.25 nM) for 16 hours in the presence of individual amino acids (250 μM) and the radiolabel present in the cell proteins assessed as before. All of the 20 protein amino acids (L-isomers) were examined individually in triplicate cell cultures. […] Incorporation of radiolabel was determined relative to cells incubated in medium containing no serine. MRC-5 cells were then incubated with ^3H-BMAA (31.25 nM) for 16 hours in HBSS alone, HBSS containing all 20 protein amino acids (400 μM) or 19 protein amino acids except L-serine and the amount of radiolabel in cell protein assessed as before."}, "Drosophila fruit flies [1]": {"tested_on": "Drosophila fruit flies", "assay": "Fruit fly feeding: mortality after three days", "type": "in vivo, Drosophila melanogaster", "conditions": "media with 25 mM BMAA and 25 mM L-Serine, three days", "method": "Preliminary studies show the ability of L-Serine to prevent misincorporation of BMAA into proteins. In a series of feeding experiments, Drosophila fruit flies were fed four different types of media: 1) standard fruit fly media with 0 mM BMAA (control), 2) media enriched with 25 mM L-Serine, 3) media with 25 mM BMAA added, and 4) media with both 25 mM BMAA and 25 mM L-Serine added for three days of feeding. Misincorporation of BMAA into proteins was then analyzed using triple quadrupole LC/MS/MS and Orbital Trap LC/MS/MS.\nEqually interesting is the analysis of the protective value of L-Serine on Drosophila dosed with BMAA. Fruit flies fed with BMAA enriched media (third set of blocks) suffered a 40% mortality after three days, while flies fed with Serine plus BMAA (fourth set of blocks) had no mortality (FIG. 8). These flies were rescued by L-Serine."}, "Drosophila fruit flies [2]": {"tested_on": "Drosophila fruit flies", "assay": "Fruit fly feeding: misincorporation of BMAA into proteins by LC/MS/MS", "type": "in vivo, Drosophila melanogaster", "conditions": "media with 25 mM BMAA and 25 mM L-Serine vs 25 mM BMAA, three days of feeding", "method": "Thirty flies were from each treatment were weighed and sonicated (Fisher Scientific sonic dismembrator model 100; 2 watts for 30 secs) in 10% trichloroacetic acid (TCA 72 μg/μl). TCA extraction was completed in two steps 20 h at 4° C. using one half the TCA volume followed by centrifugation ([…] for 3 min, Labnet Spectrafuge™ 16M microcentrifuge) and removal of supernatant. This was followed by a second sonication and extraction, 5 hours at room temperature using an equal volume of TCA, followed by centrifugation and removal of supernatant. The supernatants were pooled (with the exception of 50 μl removed from the last extraction) and centrifuge filtered (0.22 μm Ultrafree®-MC, Millipore). The remaining protein pellet was transferred to a glass vial and hydrolyzed in 6 M HCl for 16 hours at 110° C. (58 μg/μl). […] Extracts were diluted and derivatized with 6-aminoquinolyl-N-hydroxysuccinimidyl carbamate (AQC) and analyzed by LC-MS/MS.\n6-Aminoquinolyl-N-hydroxysuccinimidyl carbamate derivates (AQC Waters AccQTag reagent, P/N WAT052880) were analyzed using a triple quadrupole instrument (Thermo Scientific Finnigan TSQ Quantum Ultra, San Jose, CA) after separation by a Waters Acquity-UHPLC system with a Binary Solvent Manager, Sample Manager and a Waters AccQTag Ultra column (part#186003837, 2.1×100 mm) at 55° C. […]"}},
  "note": "Entries after “also recorded” stand apart in the source; their conditions may differ.",
  "data": [
    {"smiles": "N[C@@H](CO)C(=O)O", "note": "[L-serine]", "values": [
      {"measurement": "incorporation of BMAA into proteins when L-serine was omitted from the amino acid mixture", "setting": "MRC-5 cells; 19 protein amino acids 400 μM without L-serine", "value": "significantly increased"},
      {"measurement": "effect on incorporation of 3H-BMAA into cell proteins", "setting": "MRC-5 cells; L-serine 0, 50, 100 and 250 μM", "value": "inhibited in the presence of L-serine in a concentration-dependent manner; also recorded: inhibition of incorporation of radiolabel into cell proteins"},
      {"measurement": "mortality of flies fed BMAA plus L-Serine", "setting": "Drosophila fruit flies [1]", "value": "blocks BMAA induced mortality"},
      {"measurement": "mortality of flies fed BMAA plus L-Serine", "setting": "Drosophila fruit flies [1]; listed as L-Serine", "value": "no mortality"},
      {"measurement": "effect on amount of BMAA misincorporation into proteins", "setting": "Drosophila fruit flies [2]", "value": "reduces BMAA incorporation into proteins"},
      {"measurement": "effect on amount of BMAA misincorporation into proteins", "setting": "Drosophila fruit flies [2]; listed as L-Serine", "value": "reduced by half"}
    ]}
  ]
}
